Assay results as given in ChEMBL document CHEMBL4814008, “Using porphyrins as albumin-binding molecules to enhance antitumor efficacies and reduce systemic toxicities of antimicrobial peptides” (Eur J Med Chem, 2021).
Activity calls are given as the source filed them. The rule behind the calls is not given here.

Legend:
CWR22R = test: Cytotoxicity against human 22RV1 cells; assay type: functional, cell-based
Albumin = Albumin (Homo sapiens, UniProt P02768); test: Binding affinity to human serum albumin assessed as dissociation constant by fluorescence emission spectrophotometric analysis; assay type: ADME, cell-free
4T1 [1] = test: Phototoxicity against mouse 4T1 cells in presence of illumination by MTT assay; assay type: functional, cell-based; conditions: 4T1, light or radiation study
[2] = Drug uptake in human L02 cells by flow cytometric analysis; assay type: ADME, cell-based
[3] = Drug uptake in human MDA-MB-231 cells by flow cytometric analysis; assay type: ADME, cell-based
4T1 [4] = test: Phototoxicity against mouse 4T1 cells in presence of illumination by MTT assay relative to control; assay type: functional
[5] = Toxicity in ICR mouse assessed as effect on lungs morphology at 100 uM, iv measured after 24 hrs by H and E staining based light microscopic analysis; assay type: organism-based; conditions: in vivo
Erythrocyte [6] = test: Induction of hemolysis in RBC (unknown origin) in absence of serum; assay type: cell-based
[7] = Hepatotoxicity in ICR mouse assessed as hepatocytes with extensive shrinking cytoplasm, destroyed intercellular connections, necrotic cells with smeared nuclei at 100 uM, iv measured after 24 hrs by H and E staining based light microscopic analysis; assay type: toxicity, organism-based
Erythrocyte [8] = test: Induction of hemolysis in RBC (unknown origin) in presence of 10% FBS; assay type: cell-based
[9] = Toxicity in ICR mouse assessed as effect on spleen morphology at 100 uM, iv measured after 24 hrs by H and E staining based light microscopic analysis; assay type: organism-based; conditions: in vivo
4T1 [10] = test: Antitumor activity against mouse 4T1 cells xenografted in BALB/c mouse assessed as inhibition of tumor growth at 2.4 mg/kg, iv dosed every 3 days for 23 days; assay type: functional, organism-based; conditions: time 23.0 day
4T1 [11] = test: Antitumor activity against mouse 4T1 cells xenografted in BALB/c mouse assessed as reduction in tumor weight at 2.4 mg/kg, iv dosed every 3 days for 23 days and measured on day 23; assay type: functional; conditions: 4T1, iv, 552 h, time 23 day
4T1 [12] = test: (§1) Anti-metastatic activity against mouse 4T1 cells xenografted in BALB/c mouse assessed as metastasized area in lungs at 2.4 mg/kg, iv dosed every 3 days for 23 days and measured on day 30 by hematoxylin and eosin staining based analysis (reference value: 44.8%); assay type: functional; conditions: time 30 day
[13] = Toxicity in ICR mouse assessed as effect on kidney morphology at 100 uM, iv measured after 24 hrs by H and E staining based light microscopic analysis; assay type: organism-based; conditions: in vivo
[14] = Toxicity in ICR mouse assessed as effect on heart morphology at 100 uM, iv measured after 24 hrs by H and E staining based light microscopic analysis; assay type: organism-based; conditions: in vivo
MDA-MB-231 [15] = test: Induction of apoptosis in human MDA-MB-231 cells assessed as necrotic cells at […] by flow cytometric analysis; assay type: functional; conditions: dose 2.5 µM
[16] = Drug localization in mitochondria of human MDA-MB-231 cells at 0.5 uM by DAPI staining based confocal laser scanning microscopic method; assay type: ADME; conditions: mda-mb-231, 0.5 µM
[17] = Drug uptake in tumor of BALB/c mouse xenografted with mouse 4T1 cells at 100 uM, iv measured after 120 hrs by fluorescence molecular tomography; assay type: ADME, organism-based, Neoplasm; conditions: in vivo
4T1 [18] = test: Cytotoxicity against mouse 4T1 cells by MTT assay; assay type: functional, cell-based
MDA-MB-231 [19] = test: Phototoxicity against human MDA-MB-231 cells assessed as reduction in cell viability at 0.5 uM in presence of illumination by calcein-AM/PI staining based fluorescence analysis; assay type: functional
4T1 [20] = test: as §1, with “days and illuminated with 670 nm laser light 30 mins after the first dose and measured on” for “days and measured on”; assay type: functional; conditions: time 30 day
MDA-MB-231 [21] = test: Cytotoxicity against human MDA-MB-231 cells assessed as reduction in cell viability at 5 uM by calcein-AM/PI staining based fluorescence analysis; assay type: functional
[22] = Drug localization in nucleus of human MDA-MB-231 cells at 0.5 uM by DAPI staining based confocal laser scanning microscopic method; assay type: ADME, subcellular; conditions: mda-mb-231, 0.5 µM
MDA-MB-231 [23] = test: Induction of apoptosis in human MDA-MB-231 cells assessed as early apoptotic cells at […] by flow cytometric analysis; assay type: functional; conditions: dose 2.5 µM
[24] = Binding affinity to 1-20% fetal bovine serum protein in PBS assessed as increase in fluorescence emission by fluorescence spectrophotometric analysis; assay type: ADME, cell-free, Bos taurus; conditions: cattle
[25] = Drug localization in lysosomes of human MDA-MB-231 cells at 0.5 uM by DAPI staining based confocal laser scanning microscopic method; assay type: ADME, subcellular, Lysosome; conditions: mda-mb-231, 0.5 µM
4T1 [26] = test: Antitumor activity against mouse 4T1 cells xenografted in BALB/c mouse assessed as reduction in tumor weight at 2.4 mg/kg, iv dosed every 3 days for 23 days and illuminated with 670 nm laser light 30 mins after the first dose and measured on day 23; assay type: functional; conditions: 4T1, iv, 552 h, time 23 day
MDA-MB-231 [27] = test: Induction of apoptosis in human MDA-MB-231 cells assessed as early apoptotic cells at […] in presence of illumination by flow cytometric analysis; assay type: functional; conditions: dose 0.25 µM
[28] = Hepatotoxicity in ICR mouse assessed as hepatocytes with intact nuclei and cytoplasm at 100 uM, iv measured after 24 hrs by H and E staining based light microscopic analysis; assay type: toxicity, organism-based
[29] = Time-dependent drug uptake in mouse 4T1 cells measured for 24 hrs by flow cytometric analysis; assay type: ADME, cell-based; conditions: 4t1, 24 h, TDE = time-dependent effect
MDA-MB-231 [30] = test: Cytotoxicity against human MDA-MB-231 cells assessed as reduction in cell viability at 0.5 uM by calcein-AM/PI staining based fluorescence analysis; assay type: functional
MDA-MB-231 [31] = test: Induction of apoptosis in human MDA-MB-231 cells assessed as necrotic cells at […] in presence of illumination by flow cytometric analysis; assay type: functional; conditions: dose 0.25 µM
[32] = Binding affinity to 1-20% fetal bovine serum protein in PBS assessed as shift in Q-band by UV/Vis spectrophotometric analysis; assay type: ADME, cell-free, Bos taurus; conditions: cattle

Sequence of Albumin (P02768 whole entry): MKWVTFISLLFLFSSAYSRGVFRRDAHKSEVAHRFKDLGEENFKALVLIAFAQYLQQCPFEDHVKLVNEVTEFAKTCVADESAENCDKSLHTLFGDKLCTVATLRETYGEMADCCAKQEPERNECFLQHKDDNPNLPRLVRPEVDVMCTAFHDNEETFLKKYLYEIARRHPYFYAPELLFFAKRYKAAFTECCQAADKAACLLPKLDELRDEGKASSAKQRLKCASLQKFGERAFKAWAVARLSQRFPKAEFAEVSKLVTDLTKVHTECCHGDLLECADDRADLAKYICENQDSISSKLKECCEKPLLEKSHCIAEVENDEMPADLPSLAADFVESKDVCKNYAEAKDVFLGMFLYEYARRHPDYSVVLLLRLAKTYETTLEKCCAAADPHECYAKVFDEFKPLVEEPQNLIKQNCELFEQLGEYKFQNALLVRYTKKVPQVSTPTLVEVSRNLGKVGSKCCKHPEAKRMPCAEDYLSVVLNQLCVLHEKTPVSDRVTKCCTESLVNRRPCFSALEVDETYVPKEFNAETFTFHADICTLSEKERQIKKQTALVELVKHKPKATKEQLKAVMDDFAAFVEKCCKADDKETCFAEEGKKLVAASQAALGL

| Kd (Albumin) [nM] | Drug uptake [2] | Drug uptake [3] | SMILES | IC50 (4T1 [1]) [nM] | Activity (4T1 [4]) [%] | Activity [5] | Activity (Erythrocyte [6]) | Activity (Erythrocyte [8]) | Activity [9] | Activity (4T1 [10]) | inhibition in vivo at 2.4 mg/kg (4T1 [11]) [%] | Activity (4T1 [12]) [%] | Activity [13] | Activity [14] | also measured |
| --- | --- | --- | --- | --- | --- | --- | --- | --- | --- | --- | --- | --- | --- | --- | --- |
| – | – | – | CC(C)C[C@H](NC(=O)[C@H](CC(C)C)NC(=O)[C@@H](CCCCN)NC(=O)[C@H](CC(C)C)NC(=O)[C@H](CC(C)C)NC(=O)[C@H](CCCCN)NC(=O)[C@@H](CCCCN)NC(=O)[C@@H](CC(C)C)NC(=O)[C@H](CC(C)C)NC(=O)[C@@H](CCCCN)NC(=O)[C@H](CCCCN)NC(=O)[C@H](CC(C)C)NC(=O)[C@@H](CC(C)C)NC(=O)[C@H](CCCCN)NC(=O)[C@H](CC(C)C)NC(=O)CNC(=O)CN)C(N)=O | – | – | – | – | – | – | – | – | – | – | – | IC50 (CWR22R): 6 µM |
| 89.3 | Active | Active | C=Cc1c(C)c2cc3nc(c4c5[nH]c(cc6nc(cc1[nH]2)C(C)=C6CC)c(C)c5C(=O)C4)[C@@H](CCC(=O)O)[C@@H]3C [PYROPHEOPHORBIDE A] | 130 | 90 | – | – | – | – | – | – | – | – | – | – |
| – | – | – | CCN(CC)c1ccc2c(-c3ccccc3C(=O)NCC(=O)NCC(=O)N[C@@H](CC(C)C)C(=O)N[C@@H](CCCCN)C(=O)N[C@H](CC(C)C)C(=O)N[C@@H](CC(C)C)C(=O)N[C@@H](CCCCN)C(=O)N[C@H](CCCCN)C(=O)N[C@@H](CC(C)C)C(=O)N[C@H](CC(C)C)C(=O)N[C@H](CCCCN)C(=O)N[C@@H](CCCCN)C(=O)N[C@@H](CC(C)C)C(=O)N[C@@H](CC(C)C)C(=O)N[C@H](CCCCN)C(=O)N[C@@H](CC(C)C)C(=O)N[C@@H](CC(C)C)C(N)=O)c3ccc(=[N+](CC)CC)cc-3oc2c1 | – | – | Non-Toxic | Toxic | Non-Toxic | Non-Toxic | Active | 47.3 | 14.5 | Non-Toxic | Non-Toxic | Activity [7]: Toxic |
| 363 | Not Active | Active | C=Cc1c(C)c2cc3nc(c4c5[nH]c(cc6nc(cc1[nH]2)C(C)=C6CC)c(C)c5C(=O)C4)[C@@H](CCC(=O)NCC(=O)NCC(=O)N[C@@H](CC(C)C)C(=O)N[C@@H](CCCCN)C(=O)N[C@H](CC(C)C)C(=O)N[C@@H](CC(C)C)C(=O)N[C@@H](CCCCN)C(=O)N[C@H](CCCCN)C(=O)N[C@@H](CC(C)C)C(=O)N[C@H](CC(C)C)C(=O)N[C@H](CCCCN)C(=O)N[C@@H](CCCCN)C(=O)N[C@@H](CC(C)C)C(=O)N[C@@H](CC(C)C)C(=O)N[C@H](CCCCN)C(=O)N[C@@H](CC(C)C)C(=O)N[C@@H](CC(C)C)C(N)=O)[C@@H]3C | 380 | 100 | Non-Toxic | Toxic | Non-Toxic | Non-Toxic | Active | 90.1 | 4.7 | Non-Toxic | Non-Toxic | Activity (MDA-MB-231 [15]): 37.52%; Drug uptake [16]: Active; Drug uptake [17]: Active; Activity (4T1 [18]): Dose-Dependent Effect; IC50 (4T1 [18]): 1690 nM; Activity (MDA-MB-231 [19]): Active; Activity (4T1 [20]): 1.5%; Activity (MDA-MB-231 [21]): Active; Drug uptake [22]: Not Active; Activity (MDA-MB-231 [23]): 7.48%; Activity [24]: Active; Drug uptake [25]: Active; inhibition in vivo at 2.4 mg/kg (4T1 [26]): 98.4%; Activity (MDA-MB-231 [27]): 10.1%; Activity [28]: Non-Toxic; Drug uptake [29]: Tde; Activity (MDA-MB-231 [30]): inactive; Activity (MDA-MB-231 [31]): 29%; Activity [32]: Active |
